# Assay results reported in US11903951B2, “Nasal pharmaceutical compositions with a porous excipient” (M et P Pharma AG, priority 2016, dated 2024).
# Assays:
# [1] = Solubility of testosterone in different oils; format: physicochemical
# [2] = Time for complete dissolving of the maximally soluble amount of testosterone in different oils; settings: vortex mixer and shaker at 1000 rpm
# Procedure: The adsorption ability of the SYLOID® particles was investigated by mixing SYLOID® 244FP, XDP3050, and XDP6035 with castor oil, linalool, TRANSCUTOL®, and CAPRYOL™. The maximally soluble amount of testosterone (under the conditions tested) was dissolved in 2.5 g of each oil using a vortex mixer and shaker at 1000 rpm.
compound,measurement,setting,value
C[C@]12CC[C@H]3[C@@H](CCC4=CC(=O)CC[C@@]43C)[C@@H]1CC[C@@H]2O [testosterone],Solubility from oil,[1]; CAPRYOL PGMC,6.0%
same,Solubility from oil,[1]; TRANSCUTOL HP,6.5%
same,Solubility from oil,[1]; linalool,12.5%
same,Time of solubility (complete dissolving),[2]; 0.10 g testosterone in 2.5 g castor oil,>300 min
same,Time of solubility (complete dissolving),[2]; 0.15 g testosterone in 2.5 g CAPRYOL,~60 min
same,Time of solubility (complete dissolving),[2]; 0.16 g testosterone in 2.5 g TRANSCUTOL,~5 min
same,Time of solubility (complete dissolving),[2]; 0.31 g testosterone in 2.5 g linalool,15 to 20 min
